Activity calls are given as the source filed them. The rule behind the calls is not given here.
Experiments:
[1] = Unbound drug concentration in rat plasma at 48.02 ug/ml of total concentration measured after 12 hrs by ultrafiltration based HPLC analysis; assay type: ADME, cell-free; settings: dose 48.02 µg/ml
[2] = Protein binding in rat plasma at 21.67 ug/ml of total concentration measured after 12 hrs by ultrafiltration based HPLC analysis; assay type: ADME, cell-free; settings: at 21.67 µg/mL, read-out: PPB (converted)
[3] = Half-life in Sprague-Dawley rat at 3 mg/kg, iv measured upto 1440 min by LC-MS/MS analysis; assay type: ADME, organism-based; settings: in vivo
[4] = MRT in Sprague-Dawley rat at 3 mg/kg, iv measured upto 1440 min by LC-MS/MS analysis; assay type: ADME, organism-based; settings: in vivo
Mus musculus [5] = assay: Anti-colitis activity against DSS-induced ulcerative colitis C57BL/6 mouse model assessed as amelioration of mucosal architecture score by measuring granulation in colon at 10 to 20 mg/kg, po administered once a day for 10 days by H&E staining based histopathological analysis; assay type: functional, organism-based; settings: dose 10-20 mg/kg, time 10.0 day
Mus musculus [6] = assay: In vivo activation of AhR in C57BL/6 mouse assessed as increase in CYP1A1 mRNA expression at 10 to 20 mg/kg, po administered once a day for 10 days by qRT-PCR analysis; assay type: functional, organism-based; settings: dose 10-20 mg/kg, time 10.0 day
[7] = Induction of cell differentiation in C57BL/6 mouse naive regulatory T cells assessed as increase in cell frequency at 10 uM incubated for 72 hrs by flow cytometric analysis (reference value: 24.9%); assay type: functional
[8] = Induction of cell differentiation in C57BL/6 mouse naive regulatory T cells assessed as increase in cell frequency at 0.3 uM incubated for 72 hrs by flow cytometric analysis (reference value: 24.9%); assay type: functional
Mus musculus [9] = assay: Anti-colitis activity against DSS-induced ulcerative colitis C57BL/6 mouse model assessed as increase in Foxp3 mRNA level at 20 mg/kg, po administered once a day for 10 days by qRT-PCR analysis; assay type: functional, organism-based; settings: time 10.0 day

For `COc1cc2c3c(c1)-c1ccc(O)cc1CC3NCC2` (centres undefined), the “Cp(f)” value [1] was 6670 ng/mL, the fraction unbound at 12 h, 21.67 ug/ml [2] was 0.149 and the half-life [3] was 2.24 h. The MRT [4] was 3.07 h, the Activity (Mus musculus [5]) was “Active” and the Activity (Mus musculus [6]) was “Active”. For the same molecule, the Activity [7] was 41.7%, the Activity [8] was 26.7% and the Activity (Mus musculus [9]) was “Active”.
